Compound: CN(CCCCC(=O)c1ccc2c(c1)CNC(=O)N2)CCc1ccccc1.Cl
- melting point: 164 to 166 °C

Compound: Cl.O=C(CCCN1CCCc2ccccc2C1)c1cc2c3c(c1)CCN3C(=O)CC2
- melting point: 230 to 232 °C

Compound: COc1ccccc1CCN1CCC(CCC(=O)c2cc3c4c(c2)CCN4C(=O)CC3)CC1.Cl
- melting point: 209 to 211 °C

Compound: CN(CCCCC(=O)c1ccc2c(c1)CNC(=O)N2)CCc1ccccc1Cl.Cl
- melting point: 192 to 195 °C (dec.)

Compound: COc1ccccc1CCN(C)CCCCC(=O)c1ccc2[nH]c(=O)[nH]c2c1.Cl
- melting point: 169 to 180 °C (dec.)

Compound: CN(CCCCC(=O)c1ccc2c(c1)n(C)c(=O)n2C)CCc1ccccc1.Cl
- melting point: 142 to 157 °C (dec.)

Compound: Cl.O=C(CCC1CCN(C2Cc3ccccc3C2)CC1)c1cc2c3c(c1)CCN3C(=O)CC2
- melting point: 290 °C (dec.)

Compound: Cl.O=C(CCCCNCCCc1ccccc1)c1cc2c3c(c1)CCN3C(=O)CC2
- melting point: 116 to 118 °C

Compound: CN(CCCCC(=O)c1ccc2c(c1)CN(C)C(=O)N2C)CCc1ccccc1Cl.Cl
- melting point: 187 to 188 °C

Compound: COc1ccc(C(=O)CCCCNCCc2ccccc2)cc1NS(C)(=O)=O.Cl
- melting point: 131 to 133 °C

Compound: Cl.O=C1CCc2cc(C(=O)[C@H]3CC[C@H](CNCCc4ccccc4)CC3)cc3c2N1CC3 (stereo in doubt)
- melting point: 252 to 254 °C

Compound: Cl.O=C(CCC1CCN(CCc2ccc(Cl)cc2)CC1)c1cc2c3c(c1)CCN3C(=O)CC2
- melting point: 204 to 206 °C

Compound: COc1ccccc1CCNCCCCC(=O)c1ccc(OC)c(NS(C)(=O)=O)c1.Cl
- melting point: 129 to 131 °C

Compound: COc1ccc(C(=O)CCCCNCCc2ccccc2Cl)cc1S(N)(=O)=O.Cl
- melting point: 161 to 163 °C

Compound: Cl.O=C(CCC1CCN(CCc2c(Cl)cccc2Cl)CC1)c1cc2c3c(c1)CCN3C(=O)CC2
- melting point: 226 to 229 °C

Compound: Cl.O=C(CCC1CCN(C2CCc3ccccc32)CC1)c1cc2c3c(c1)CCN3C(=O)CC2 (racemic)
- melting point: 111 to 113 °C

Compound: Cl.O=C(CCC1CCN(CC(O)c2ccccc2)CC1)c1cc2c3c(c1)CCN3C(=O)CC2 (racemic)
- melting point: 235 to 237 °C

Compound: Cl.O=C1NCc2cc(C(=O)CCCCNCCc3ccccc3)ccc2N1
- melting point: 199 to 205 °C (dec.)

Compound: CN(CCCCC(=O)c1ccc2[nH]c(=O)[nH]c2c1)CCc1ccccc1.Cl
- melting point: 240 °C

Compound: CN(CCCCCC(=O)c1cc2c3c(c1)CCN3C(=O)CC2)CCc1ccccc1.Cl
- melting point: 83 to 85 °C

Compound: COc1ccc(C(=O)CCCCCNCCc2ccccc2Cl)cc1NS(C)(=O)=O.Cl
- melting point: 112 to 115 °C

Compound: COc1ccccc1CCNCCCCC(=O)c1c[nH]c2ccccc12.Cl
- melting point: 143 to 145 °C

Compound: Cl.O=C(CCC1CCN(C2CCc3ccccc3C2)CC1)c1cc2c3c(c1)CCN3C(=O)CC2 (racemic)
- melting point: 223 to 225 °C

Compound: Cl.NS(=O)(=O)c1cc(C(=O)CCCCNCCc2ccccc2Cl)cc2c1OCC2
- melting point: 160 to 170 °C

Compound: COc1ccc(CCN2CCC(CCC(=O)c3cc4c5c(c3)CCN5C(=O)CC4)CC2)cc1.Cl
- melting point: 141 to 143 °C

Compound: COc1cccc(CCN(C)CCCCCC(=O)c2cc3c4c(c2)CCN4C(=O)CC3)c1.Cl
- melting point: 116 to 118 °C

Compound: COc1ccccc1CCN(C)CCCCC(=O)c1ccc2c(c1)CN(C)C(=O)N2C.Cl
- melting point: 145 to 146 °C

Compound: Cl.NS(=O)(=O)c1cc(C(=O)CCCCNCCc2ccccc2)cc2c1OCCO2
- melting point: 152 to 154 °C

Compound: Cl.O=C(CCCCNCCc1ccccc1O)c1cc2c3c(c1)CCN3C(=O)CC2
- melting point: 112 to 113 °C

Compound: Cl.O=C(CCCCNCCc1ccccc1Cl)c1cccs1
- melting point: 146 to 147 °C

Compound: COc1ccccc1CCNCCCCC(=O)c1cc2c(c(S(N)(=O)=O)c1)OCCO2.Cl
- melting point: 166 to 168 °C

Compound: Cl.O=C(CCC1CCN(CCc2ccc([N+](=O)[O-])cc2)CC1)c1cc2c3c(c1)CCN3C(=O)CC2
- melting point: 217 to 219 °C

Compound: Cl.O=C(CCCCNCCc1c(Cl)cccc1Cl)c1cc2c3c(c1)CCN3C(=O)CC2
- melting point: 171 to 174 °C

Compound: COc1cccc(CCN2CCC(CCC(=O)c3cc4c5c(c3)CCN5C(=O)CC4)CC2)c1.Cl
- melting point: 240 to 242 °C
